Assay [1] deals with T1, human α7 wild type nAChR (Homo sapiens, UniProt P36544).
T1 construct: This created a new cDNA encoding a full length α7 subunit; expressed in transfected cells; host or cells: Xenopus laevis oocytes injected with receptor RNA or DNA
Kind of assay: Agonist concentration-response, two-electrode voltage-clamp in Xenopus laevis oocytes. As to conditions: for Hill coefficient: Hill equation fit. Type of assay: cell-based.

For assay [2], the target named is T2, human α7V274T nAChR (Homo sapiens, UniProt P36544, V274T).
T2 construct: This created a new cDNA encoding a full length α7 subunit; expressed in transfected cells
The assay is described as above. Type of assay: cell-based.

The target in assay [3] is T1, human α7 wild type nAChR. Kind of assay: nAChR antagonists applied alone as agonists, current response in Xenopus oocytes. It is filed as cell-based. As to conditions: ligand μM: DHβE 10, d-TC 1, MLA 0.01, MEC 10, ATROP 2.
Assay [4] deals with T1, human α7 wild type nAChR. The experiment in a line: Inhibition of the response to ACh in Xenopus oocytes. Type of assay: cell-based. As to conditions: ligand μM: DHβE 10, d-TC 1, MLA 0.01, MEC 10, ATROP 2; for % Inhibition, % of 200 μM ACh: inhibition of response to 200 μM ACh; for % Inhibition, % of 10 mM ACh: inhibition of response to 10 mM ACh.
Assay [5] concerns the target chick α7V251T nAChR (Gallus gallus, UniProt P22770, V274T). Particulars: 10 μM DHβE; cited from earlier work.
Assay [6] has as its target T2, human α7V274T nAChR. The experiment in a line: nAChR antagonists applied alone as agonists, current response in Xenopus oocytes. Type of assay: cell-based. As to conditions: for % Activation, 10 μM ACh: compared to activation by 10 μM ACh, ligand μM: DHβE 10, d-TC 1, MLA 0.01, MEC 10, ATROP 2, mean ± s.e.m. (n).
In assay [7] the target is T2, human α7V274T nAChR. Kind of assay: Inhibition of the response to ACh in Xenopus oocytes. As to conditions: for % Inhibition, 1 μM ACh: inhibition of response to 1 μM ACh; for % Inhibition, 1 μM ACh / % Inhibition, 10 μM ACh: ligand μM: DHβE 10, d-TC 1, MLA 0.01, MEC 10, ATROP 2; for % Inhibition, 10 μM ACh: inhibition of response to 10 μM ACh; for inhibition of ACh response: MEC 10 μM against 1 μM ACh in three of the five oocytes inhibited by atropine. It is filed as cell-based.

In the next assay the target is chick α7L247T nAChR (Gallus gallus, UniProt P22770, L270T). Particulars: cited from earlier work.
Assay [8] concerns chick α7V251T nAChR. As to conditions: cited from earlier work.
The next assay has as its target chick α7 nAChR (Gallus gallus, UniProt P22770). As to conditions: cited from earlier work.
In another assay the target is human α7 nAChR (Homo sapiens, UniProt P36544). As to conditions: cited from earlier work.

Consider eight compounds from patent US6683157B2, “Variant human α7 acetylcholine receptor subunit, and methods of production and use thereof” (priority 1996, dated 2004).

“Also recorded” adds a separate entry of the source. Structures can show the parent of a compound that is named as a salt. Where two headings read alike, the source gives them in different places.

As for `Cc1ncccc1OC[C@@H]1CCCN1` [ABT-089], the “agonist type” value on human α7 wild type nAChR [1] is “partial agonists”. At human α7V274T nAChR [2], this compound displayed an EC50 of 28 ± 3 µM. Besides, the efficacy at human α7V274T nAChR [2] (responses normalized to the response to ACh) amounted to 40±1%.

Regarding `CN1CCCC1c1cccnc1` (single isomer, unassigned; (-)) [(−)-nicotine], the Hill coefficient on human α7 wild type nAChR [1] stood at 1.2±0.2; on human α7V274T nAChR [2] (Hill equation fit) it was 1.3±0.2.

Consider `Br.CO[C@H]1CC=C2CCN3CCC4=C(CC(=O)OC4)[C@]23C1` [DHβE, Dihydro-β-erythroidine hydrobromide], for which, on human α7 wild type nAChR [3], the “% Activation, % of 10 mM ACh” value is listed as −0.2 ± 0.1 (5) %. Moreover, on human α7 wild type nAChR [4], the “% Inhibition, % of 200 μM ACh” value is recorded as 41 ± 10 (4) % and the “% Inhibition, % of 10 mM ACh” value was 23 ± 2 (4) %. Further, the “response as % of the ACh response” value on chick α7V251T nAChR [5] is 66%. The “% Activation, 10 μM ACh” value on human α7V274T nAChR [6] is reported as 4 ± 1 (4) %. At human α7V274T nAChR [7], the “% Inhibition, 1 μM ACh” value was 69 ± 5 (4) % and the “% Inhibition, 10 μM ACh” value is on record as 52 ± 6 (4) %.

Regarding `COc1cc2c3cc1Oc1cc(ccc1O)C[C@@H]1c4c(cc(OC)c(O)c4Oc4ccc(cc4)C[C@@H]3N(C)CC2)CC[N+]1(C)C.Cl.O.O.O.O.O.[Cl-]` [d-TC, d-tubocurarine chloride], on human α7 wild type nAChR [3], the “% Activation, % of 10 mM ACh” value is −0.1 ± 0.1 (5) %. Besides, on chick α7L247T nAChR, the “activation of inward current” value was “full response”. On human α7 wild type nAChR [4], the “% Inhibition, % of 200 μM ACh” value was 28 ± 2 (4) % and the “% Inhibition, % of 10 mM ACh” value is reported as 25 ± 3 (4) %. In addition, the “outward current amplitude, % of the maximal inward current response to ACh” value at human α7V274T nAChR [6] (MLA 10 nM, MEC 10 μM, d-TC 1 μM (d-TC in two of four oocytes)) was 3-5%. On human α7V274T nAChR [6], the “% Activation, 10 μM ACh” value is recorded as −2 ± 1 (4) %. Further, at human α7V274T nAChR [6] (d-TC 1 μM, atropine 2 μM), the “current response to ligand alone” value is on record as “did not elicit agonist-like inward currents; also recorded: did not activate inward currents”. Also, at human α7V274T nAChR [7], the “inhibition of ACh response” value is listed as “potent antagonist”; the “% Inhibition, 1 μM ACh” value is reported as 99 ± 1 (4) %; the “% Inhibition, 10 μM ACh” value is listed as 97 ± 3 (3) %.

For the compound `CC(=O)OCC[N+](C)(C)C` [ACh, Acetylocholine chloride], the “increase in ACh potency versus chick α7 wild type” value in the assay with chick α7V251T nAChR [8] is 180 fold. For the same compound, the Hill coefficient at human α7 wild type nAChR [1] was 0.94±0.09; on human α7V274T nAChR [2] (Hill equation fit) it was 1.8±0.2.

Regarding `COc1ccc(/C=C2\CCCN=C2c2cccnc2)c(OC)c1` [GTS-21], the “agonist type” value is recorded as “partial agonists” at human α7 wild type nAChR [1] and “full agonist” on human α7V274T nAChR [2]. This compound also returned a Hill coefficient on human α7V274T nAChR [2] (Hill equation fit) of 1.5±0.1. In addition, a half-maximal response on human α7V274T nAChR [2] (peak amplitude normalized to ACh response, Hill equation fit, holding potential −60 mV) (EC50) required 4.3 ± 0.3 µM.

As to `CNC1(C)C2CCC(C2)C1(C)C` (centres unmarked) [MEC, mecamylamine hydrochloride], at human α7 wild type nAChR [3], the “% Activation, % of 10 mM ACh” value is −0.3 ± 0.2 (3) %. Moreover, at human α7 wild type nAChR [4], the “% Inhibition, % of 200 μM ACh” value is 82 ± 1 (3) % and the “% Inhibition, % of 10 mM ACh” value is reported as 85 ± 3 (3) %. Besides, the “% Activation, 10 μM ACh” value at human α7V274T nAChR [6] is listed as −1.9 ± 0.2 (4) %. Besides, on human α7V274T nAChR [7], the “inhibition of ACh response” value is “completely blocked”; the “% Inhibition, 1 μM ACh” value is 101 ± 1 (4) %; the “% Inhibition, 10 μM ACh” value is given as 53 ± 2 (4) %.

On to `C[N+]1(C)CCN(c2ccccc2)CC1` [DMPP, 1,1-dimethyl-4-phenylpiperazinium], for which the results for the “agonist type” value at chick α7 nAChR and at human α7 nAChR were “very weak partial agonist” and “highly efficacious agonist”, respectively.
